# Test results from patent US11986480B2, “Heterocyclic compound” (TOHOKU UNIVERSITY, priority 2017, dated 2024).
# Structures can show the parent of a compound that is named as a salt.
# System: EmGFP-HaloTag
# Test: Test Example 1: HeLa cells stably expressing EmGFP-HaloTag, Western blot GFP/actin (Testing Method A)
# Assay type: cell-based
# Details: 1 uM, 24 hours, 1 or less = degradation promoted
# Description: Test Example 1: Evaluation Method Using Cell Stably Expressing EmGFP-HaloTag (Testing Method A)
# HeLa cells stably expressing EmGFP-HaloTag were inoculated to Dulbecco's Modified Eagle Medium (DMEM) and cultured for 24 hours. Then, a test compound (specifically, compounds of Examples 1 to 7, 9 to 11, 13 to 15, 17 to 20, 24 to 27, 29, 32 to 33, 36 to 42, 44 to 46 and 56) was added thereto at the final concentration shown in Table 2, followed by incubation for 24 hours under conditions of 37° C./5% CO2. The cells were washed with PBS three times and treated with a cell lysis solution containing a proteolytic enzyme inhibitor to obtain a cell extract. The cell extract was subjected to SDS-PAGE. After the electrophoresis, GFP and actin were detected by Western blot. The ratio of the GFP/actin value of the drug-treated cells to the GFP/actin value of a control group in drug-untreated cells was regarded as an activity value. A value of 1 or less represents that degradation of EmGFP-HaloTag was promoted.
row,SMILES,Activity value (GFP/actin of drug-treated cells relative to drug-untreated control)
1,"Nc1nc2c(nc(/C=C/C(=O)NCCOCCOCCOCCOCCOCCCCCCCl)n2Cc2ccc(F)cc2)c(=O)[nH]1 [Example 5, (2E)-3-(2-Amino-9-(4-fluorobenzyl)-6-oxo-6,9-dihydro-1H-purin-8-yl)-N-(21-chloro-3,6,9,12,15-pentaoxahenicos-1-yl)acrylamide]",0.3
2,"Nc1nc2c(nc(-c3cn(CCOCCOCCOCCOCCOCCCCCCCl)nn3)n2Cc2ccc(F)cc2)c(=O)[nH]1 [Example 15, 2-Amino-8-(1-(21-chloro-3,6,9,12,15-pentaoxahenicos-1-yl)-1H-1,2,3-triazol-4-yl)-9-(4-fluorobenzyl)-1,9-dihydro-6H-purin-6-one]",0.9
3,Nc1nc2c(nc(-c3cccc(OCCOCCOCCOCCOCCOCCCCCCCl)c3)n2Cc2ccc(F)cc2)c(=O)[nH]1 [Example 10],0.3
4,"CC(=O)N[C@@H](CSc1nc2c(=O)[nH]c(N)nc2n1Cc1ccc(S(C)(=O)=O)cc1)C(=O)NCCOCCOCCOCCOCCOCCCCCCCl [Example 39, N^2-acetyl-S-(2-amino-9-(4-(methylsulfonyl)benzyl)-6-oxo-6,9-dihydro-1H-purin-8-yl)-N-(21-chloro-3,6,9,12,15-pentaoxahenicos-1-yl)-L-cysteinamide]",0.7
5,"CC(=O)N[C@@H](CSc1nc2c(N)ncnc2n1Cc1ccc(F)cc1)C(=O)NCCOCCOCCOCCOCCOCCCCCCCl [Example 17, N^2-Acetyl-S-(6-amino-9-(4-fluorobenzyl)-9H-purin-8-yl)-N-(21-chloro-3,6,9,12,15-pentaoxahenicos-1-yl)-L-cysteinamide trifluoroacetate]",0.7
6,"CC(=O)N[C@@H](CSc1nc2c(=O)n(C)c(=O)n(C)c2n1Cc1ccc(F)cc1)C(=O)NCCOCCOCCOCCOCCOCCCCCCCl [Example 13, N^2-Acetyl-N-(21-chloro-3,6,9,12,15-pentaoxahenicos-1-yl)-S-(9-(4-fluorobenzyl)-1,3-dimethyl-2,6-dioxo-2,3,6,9-tetrahydro-1H-purin-8-yl)-L-cysteinamide]",0.1
7,"CC(=O)N[C@@H](CSc1nc2cncnc2n1Cc1ccc(F)cc1)C(=O)NCCOCCOCCOCCOCCOCCCCCCCl [Example 18, N^2-Acetyl-N-(21-chloro-3,6,9,12,15-pentaoxahenicos-1-yl)-S-(9-(4-fluorobenzyl)-9H-purin-8-yl)-L-cysteinamide]",0.1
8,"CC(=O)N[C@@H](CSc1nc2c(=O)n3cc[nH]c3nc2n1Cc1ccc(F)cc1)C(=O)NCCOCCOCCOCCOCCOCCCCCCCl [Example 44, N^2-Acetyl-N-(21-chloro-3,6,9,12,15-pentaoxahenicos-1-yl)-S-(3-(4-fluorobenzyl)-9-oxo-5,9-dihydro-3H-imidazo[1,2-a]purin-2-yl)-L-cysteinamide]",0.9

# Same assay, conditions: 5 uM, 24 hours, 1 or less = degradation promoted
row,SMILES,Activity value (GFP/actin of drug-treated cells relative to drug-untreated control)
1,"Nc1nc2c(nc(NCC(=O)NCCOCCOCCOCCOCCOCCCCCCCl)n2Cc2ccc(F)cc2)c(=O)[nH]1 [Example 9, N^2-(2-amino-9-(4-fluorobenzyl)-6-oxo-6,9-dihydro-1H-purin-8-yl)-N-(21-chloro-3,6,9,12,15-pentaoxahenicos-1-yl)glycinamide]",0.47
2,Nc1nc2c(nc(SCC(=O)NCCOCCOCCOCCOCCOCCCCCCCl)n2Cc2ccc(F)cc2)c(=O)[nH]1 [Example 7],0.79

# Same assay, conditions: 10 uM, 24 hours, 1 or less = degradation promoted
row,SMILES,Activity value (GFP/actin of drug-treated cells relative to drug-untreated control)
1,"CC(=O)N[C@@H](CSc1nc2c(=O)[nH]c(N)nc2n1Cc1ccc(C#N)cc1)C(=O)NCCOCCOCCOCCOCCOCCCCCCCl [Example 36, N^2-acetyl-S-(2-amino-9-(4-cyanobenzyl)-6-oxo-6,9-dihydro-1H-purin-8-yl)-N-(21-chloro-3,6,9,12,15-pentaoxahenicos-1-yl)-L-cysteinamide]",0.9
2,"Nc1nc2c(nc(-c3ccc(OCCOCCOCCOCCOCCOCCCCCCCl)cc3)n2Cc2ccc(F)cc2)c(=O)[nH]1 [Example 11, 2-amino-8-(4-((21-chloro-3,6,9,12,15-pentaoxahenicos-1-yl)oxy)phenyl)-9-(4-fluorobenzyl)-1,9-dihydro-6H-purin-6-enea]",0.7
3,"Nc1nc2c(nc(-c3cccc(C(=O)NCCOCCOCCOCCOCCOCCCCCCCl)c3)n2Cc2ccc(F)cc2)c(=O)[nH]1 [Example 4, 3-(2-amino-9-(4-fluorobenzyl)-6-oxo-6,9-dihydro-1H-purin-8-yl)-N-(21-chloro-3,6,9,12,15-pentnoxahenicos-1-yl)benzamide]",0.8
4,"CC(=O)N[C@@H](CSc1nc2c(=O)[nH]c(N)nc2n1Cc1ccccc1)C(=O)NCCOCCOCCOCCOCCOCCCCCCCl [Example 20, N^2-Acetyl-S-(2-amino-9-benzyl-6-oxo-6,9-dihydro-1H-purin-8-yl)-N-(21-chloro-3,6,9,12,15-pentaoxahenicos-1-yl)-L-cysteinamide Trifluoroacetate]",0.2
5,"CC(=O)N[C@@H](CSc1nc2c(N)nc(N)nc2n1Cc1ccc(F)cc1)C(=O)NCCOCCOCCOCCOCCOCCCCCCCl [Example 45, N^2-Acetyl-N-(21-chloro-3,6,9,12,15-pentaoxahenicos-1-yl)-S-(2,6-diamino-9-(4-fluorobenzyl)-9H-purin-8-yl)-L-cysteinamide]",0.7
6,Nc1nc2c(nc(SCCC(=O)NCCOCCOCCOCCOCCOCCCCCCCl)n2Cc2ccc(F)cc2)c(=O)[nH]1 [Example 2],0.9

# Same assay, conditions: 100 uM, 24 hours, 1 or less = degradation promoted
row,SMILES,Activity value (GFP/actin of drug-treated cells relative to drug-untreated control)
1,"Nc1nc2c(nc(CNCCOCCOCCOCCOCCOCCCCCCCl)n2Cc2ccc(F)cc2)c(=O)[nH]1 [Example 32, 2-Amino-8-(23-chloro-5,8,11,14,17-pentaoxa-2-azatricos-1-yl)-9-(4-fluorobenzyl)-1,9-dihydro-6H-purin-6-one]",0.7
2,"Nc1nc2c(nc(-c3ccc(C(=O)NCCOCCOCCOCCOCCOCCCCCCCl)cc3)n2Cc2ccc(F)cc2)c(=O)[nH]1 [Example 3, 4-(2-Amino-9-(4-fluorobenzyl)-6-oxo-6,9-dihydro-1H-purin-8-yl)-N-(21-chloro-3,6,9,12,15-pentaoxahenicos-1-yl)benzamide]",0.3
3,"Nc1nc2c(nc(C(=O)N3CCCCC3C(=O)NCCOCCOCCOCCOCCOCCCCCCCl)n2Cc2ccc(F)cc2)c(=O)[nH]1 (centres unmarked) [Example 46, 1-((2-Amino-9-(4-fluorobenzyl)-6-oxo-6,9-dihydro-1H-purin-8-yl)carbonyl)-N-(21-chloro-3,6,9,12,15-pentaoxahenicos-1-yl)piperidine-2-carboxamide]",0.2
4,"COc1ccc(Cn2c(SC[C@H](NC(C)=O)C(=O)NCCOCCOCCOCCOCCOCCCCCCCl)nc3c(=O)[nH]c(N)nc32)cc1 [Example 38, N^2-acetyl-S-(2-amino-9-(4-methoxybenzyl)-6-oxo-6,9-dihydro-1H-purin-8-yl)-N-(21-chloro-3,6,9,12,15-pentaoxahenicos-1-yl)-L-cysteinamide]",0.8
